Source: US10525144B2, “Selective targeting of an anti-inflammatory receptor in human mitochondria and preservation of mitochondrial functions” (THE JOHNS HOPKINS UNIVERSITY, priority 2014, dated 2020)
Ends that are not written are not given here. * marks the point of attachment. 5FAM = O=C1OC2(c3ccc(O)cc3Oc3cc(O)ccc32)c2ccc(C(=O)*)cc21

Experiments:
mitochondria = assay: Confocal fluorescence microscopy of cellular localization of the conjugate in rat cells (FIG. 3); assay type: cell-based
Protocol: FIG. 3 contains confocal fluorescence microscopy images of rat liver cells incubated with MTS1-Ls-5-FAM for 24 hrs.
The MTS1-Ls-5-FAM conjugate was transfected into rat cells and incubated for 24 hours before confocal fluorescence microscopy was performed to ascertain cellular localization. Cells were co-stained with Mitotracker-Red and Hoescht 33342 for the mitochondria and nuclei, respectively.

[1] = tested on: mitochondrial membrane potential; assay: Quantification of mitochondrial membrane potential based on TMRE localization in cardiac cells (FIG. 8); assay type: cell-based; settings: treated vs control, FIG. 8 panels E and F
Excerpt: FIG. 8 consists of panels A-J. Panels A and B are images showing quantification of mitochondrial membrane potential based on TMRE localization in control (panel A) and MTS1-Ls-5-FAM-treated (panel B) cardiac cells. TMRE localizes in the mitochondria, and based on the intensity of the TMRE dye, the mitochondrial membrane potential can be calculated (panel C).

[2] = tested on: mitochondria of cardiac cells; assay: Co-localization with mitochondria of cardiac cells (FIG. 7); assay type: cell-based
skeletal muscle = assay: Skeletal muscle healing and disuse atrophy in older mice; assay type: in vivo; settings: high doses
Excerpt: (§1) The inventors recently discovered functional mitochondrial Angiotensin receptors (mtAT1R and mtAT2R) that shift to an increased mtAT1R/mtAT2R ratio with aging. One of the protective benefits of Angiotensin (Ang) receptor type 1 (AT1R) blockers, such as Losartan (LOS), arises from its systemic effects on blood pressure and remodelling. […] Therefore, angiotensin receptor blockers such as Losartan have utility beyond hypertension treatment; angiotensin receptor blockers can be used in the treatment of conditions relevant to older adults.

mitochondrial function = assay: Effect of Losartan on mitochondrial function
Excerpt: as §1

Molecule | localization of the conjugate with the mitochondria (mitochondria; rat cells, incubated 24 hours, co-stained with Mitotracker-Red and Hoescht 33342) | localization in merged confocal image (mitochondria; rat liver cells incubated 24 hrs, FIG. 3 panel (d)) | maximum TMRE intensity per pixel [1] | co-localization with mitochondria (images) ([2]; FIG. 7 panels A and B) | co-localization with mitochondria by Pearson coefficient ([2]; relative to the scrambled MTS1-Ls-5-FAM, FIG. 7 panel C) | co-localization with mitochondria by Mander's coefficient ([2]; relative to the scrambled MTS1-Ls-5-FAM, FIG. 7 panel D) | disuse atrophy (skeletal muscle) | skeletal muscle healing (skeletal muscle) | mitochondrial function (mitochondrial function)
MTS1-Ls-5-FAM (MLRAALSTARRGPRLSRLLCK(5FAM); not fully specified (C-terminus); printed as MLRAALSTARRGPRLSRLLCK(Mtt); also: losartan conjugated, site not given here) | greater than 80% | localization of MTS1-Ls-5-FAM within the mitochondria | no significant difference | positive co-localization | significantly more co-localized | significantly more co-localized | – | – | –
CCCCc1nc(Cl)c(CO)n1Cc1ccc(-c2ccccc2-c2nn[nH]n2)cc1 [LOS, Losartan] | – | – | – | – | – | – | prevent disuse atrophy | accelerate skeletal muscle healing | improved
